{
  "source": "ChEMBL document CHEMBL1268821",
  "about": "“Inhibitors of the tyrosine kinase EphB4. Part 3: identification of non-benzodioxole-based kinase inhibitors” (Bioorg Med Chem Lett, 2010)",
  "key": {"[1]": {"experiment": "AUC (0 to 24 hrs) in nude mouse at 100 mg/kg, po", "type": "ADME, organism-based", "parameters": "time < 24 hr, dose 100 mg/kg, route oral", "details": "plasma"}, "[2]": {"experiment": "Plasma concentration in nude mouse at 100 mg/kg, po measured at 1 hr", "type": "ADME, organism-based", "parameters": "dose 100 mg/kg, route oral"}, "[3]": {"experiment": "Plasma concentration in nude mouse at 100 mg/kg, po measured at 4 hrs", "type": "ADME, organism-based", "parameters": "dose 100 mg/kg, route oral"}, "[4]": {"experiment": "Plasma concentration in nude mouse at 100 mg/kg, po measured at 24 hrs", "type": "ADME, organism-based", "parameters": "dose 100 mg/kg, route oral"}, "Rattus norvegicus": {"test_system": "Rattus norvegicus", "experiment": "Hepatic blood flow in Han Wistar rat at […], iv and 5 mg/kg, po", "type": "ADME, organism-based, Liver", "details": "in vivo"}, "[5]": {"experiment": "Volume of distribution at steady state in Han Wistar rat at […], iv and 5 mg/kg, po", "type": "ADME, organism-based", "details": "in vivo, read-out: Vdss"}, "[6]": {"experiment": "Bioavailability in Han Wistar rat at […], iv and 5 mg/kg, po", "type": "ADME, organism-based", "details": "in vivo"}},
  "data": [
    {"smiles": "CN(c1ccnc(Nc2cc(N3CCOCC3)cc(N3CCOCC3)c2)n1)c1cccc2[nH]ncc12", "values": [
      {"measurement": "AUC(0-t) at 24 h", "setting": "[1]", "value": 48.7, "unit": "µM·h"},
      {"measurement": "concentration at 1 h", "setting": "[2]", "value": 11000, "unit": "nM"},
      {"measurement": "concentration at 4 h", "setting": "[3]", "value": 1900, "unit": "nM"},
      {"measurement": "concentration at 24 h", "setting": "[4]", "value": 1800, "unit": "nM"},
      {"measurement": "QH", "setting": "Rattus norvegicus", "value": 19, "unit": "%"},
      {"measurement": "Vd", "setting": "[5]", "value": 0.8, "unit": "L/kg"},
      {"measurement": "bioavailability", "setting": "[6]", "value": 65, "unit": "%"}
    ]}
  ]
}
